Source: BindingDB's records for doi:10.7270/Q2T43RPN (Burnham Center For Chemical Genomics, 2012)
pIC50: −log10 of the molar value.

Biological target: T1, Tyrosine-protein phosphatase non-receptor type 11 (Homo sapiens, UniProt Q06124)
T1 sequence (Q06124 whole entry): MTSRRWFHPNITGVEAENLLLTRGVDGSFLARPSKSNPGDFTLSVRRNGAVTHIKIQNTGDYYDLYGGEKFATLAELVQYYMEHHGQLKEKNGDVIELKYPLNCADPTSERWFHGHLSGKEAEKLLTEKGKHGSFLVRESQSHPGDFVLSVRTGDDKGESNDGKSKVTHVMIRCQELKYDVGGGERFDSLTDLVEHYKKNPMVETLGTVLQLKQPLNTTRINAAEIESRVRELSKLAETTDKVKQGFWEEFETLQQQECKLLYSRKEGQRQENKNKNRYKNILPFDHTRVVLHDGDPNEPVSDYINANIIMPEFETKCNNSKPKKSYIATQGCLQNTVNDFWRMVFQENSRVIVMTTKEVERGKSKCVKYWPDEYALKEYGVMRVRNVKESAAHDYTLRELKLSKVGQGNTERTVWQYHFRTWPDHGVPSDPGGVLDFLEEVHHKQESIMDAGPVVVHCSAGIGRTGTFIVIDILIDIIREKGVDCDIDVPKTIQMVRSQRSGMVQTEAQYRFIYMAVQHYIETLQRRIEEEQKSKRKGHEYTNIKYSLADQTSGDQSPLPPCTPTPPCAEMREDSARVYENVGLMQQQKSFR
Assay: SHP2 phosphatase inhibition, dose response, selectivity assay for STEP inhibitor project, biochemical (AID 602367)

Structure (SMILES)	pIC50
COc1ccc(OC)c(-n2c(O)c3o[nH]c(-c4ccccc4Cl)c-3c2=O)c1 [SMR000046218]	6.33
COc1ccc(CN=Nc2nc(O)c(CC(=O)O)s2)cc1OCc1ccc(Cl)cc1Cl [[2-({3-[(2,4-dichlorobenzyl)oxy]-4-methoxybenzylidene}hydrazono)-4-oxo-1,3-thiazolidin-5-yl]acetic acid]	5.35
S=C1N=C2C(=C3SCCS3)CCCC2C(c2ccccc2)N1 (stereo not given) [MLS000516376]	5.28
C=c1c(O)c(O)c(=C2C(=O)C(=O)C(C)C(=O)C2=O)c(O)c1O (stereo not given) [(3E)-5-hydroxy-6-methyl-3-(2,3,5-trihydroxy-4-methyl-6-oxo-1-cyclohexa-2,4-dienylidene)cyclohex-5-ene-1,2,4-trione]	> 6.80
O=C(N/N=C/C1C=CC=CC1=O)c1cccc([N+](=O)[O-])c1 (stereo not given) [MLS002667988]	5.62
S=C1N=C(C23CC4CC(CC(C4)C2)C3)CC(c2ccc3c(c2)OCO3)N1 (stereo not given)	4.82
CCN(CC)P(=O)(NC(=O)C(Cl)(Cl)Cl)N(CC)CC [MLS000564159]	5.41
O=C1C(=O)N(CCCO)C(c2ccc(Br)cc2)C1C(=O)c1ccc(Br)cc1 (stereo not given) [(4E)-5-(4-bromophenyl)-4-[(4-bromophenyl)-oxidanyl-methylidene]-1-(3-oxidanylpropyl)pyrrolidine-2,3-dione]	4.23
CSc1ccc(CN=Nc2ccc(S(=O)(=O)Nc3ccccc3C(=O)O)cc2[N+](=O)[O-])cc1 [MLS002245633]	5.95
CCOc1cc(CN=Nc2nc(O)c(CC(=O)O)s2)ccc1OCc1ccc(Cl)cc1Cl [2-[2-[(N''E)-N''-[4-(2,4-dichlorobenzyl)oxy-3-ethoxy-benzylidene]hydrazino]-4-keto-2-thiazolin-5-yl]acetic acid]	5.66
